Data as given in patent publication US9198918B2, “Benzoxazepin PI3K inhibitor compounds and methods of use” (Genentech, Inc., priority 2009, dated 2015).

Assays:
A2058 = assay: CellTiter-Glo cell proliferation assay, A2058; type: cell-based; conditions: Homo sapiens, Melanoma, mutation status PTEN
Description: (§1) Efficacy of Formula I compounds was measured by a cell proliferation assay employing the following protocol (Promega Corp. Technical Bulletin TB288; Mendoza et al (2002) Cancer Res. 62:5485-5488):
(§2) 1. An aliquot of 100 μl of cell culture containing about 104 cells (PC3, Detroit562, or MDAMB361.1) in medium was deposited in each well of a 384-well, opaque-walled plate.
(§3) 2. Control wells were prepared containing medium and without cells.
(§4) 3. The compound was added to the experimental wells and incubated for 3-5 days.
(§5) 4. The plates were equilibrated to room temperature for approximately 30 minutes.
(§6) 5. A volume of CellTiter-Glo Reagent equal to the volume of cell culture medium present in each well was added.
6. […]
(§7) 7. The plate was incubated at room temperature for 10 minutes to stabilize the luminescence signal.
(§8) 8. Luminescence was recorded and reported in graphs as RLU=relative luminescence units.
(§9) Alternatively, cells were seeded at optimal density in a 96 well plate and incubated for 4 days in the presence of test compound. Alamar Blue™ was subsequently added to the assay medium, and cells were incubated for 6 hr before reading at 544 nm excitation, 590 nm emission. EC50 values were calculated using a sigmoidal dose response curve fit. […]
(§10) The anti-proliferative effects of Formula I exemplary compounds were measured by the CellTiter-Glo® Assay against various tumor cell lines, including the following: […]

Colo205 = assay: CellTiter-Glo cell proliferation assay, Colo205; type: cell-based; conditions: Homo sapiens, COLO 205, Colon, mutation status B-Raf
Description: as §1, §2, §3, §4, §5, §6
6. […]
as §7, §8, §9, §10

T47D = assay: CellTiter-Glo cell proliferation assay, T47D; type: cell-based; conditions: Homo sapiens, Breast, mutation status PI3K
Description: as §1, §2, §3, §4, §5, §6
(§11) 6. The contents were mixed for 2 minutes on an orbital shaker to induce cell lysis.
as §7, §8
(§12) Alternatively, cells were seeded at optimal density in a 96 well plate and incubated for 4 days in the presence of test compound. Alamar Blue™ was subsequently added to the assay medium, and cells were incubated for 6 hr before reading at 544 nm excitation, 590 nm emission. EC50 values were calculated using a sigmoidal dose response curve fit. The term EC50 refers to the half maximal effective concentration and is the concentration at which a drug induces a response halfway between the baseline and maximum after some specified exposure time. It is commonly used as a measure of drug potency.
as §10

MDA-MB-231 = assay: CellTiter-Glo cell proliferation assay, MDA-MB-231; type: cell-based; conditions: Homo sapiens, Breast, mutation status K-RAS
Description: as §1, §2, §3, §4, §5, §6
6. […]
as §7, §8, §9, §10

LN229 = assay: CellTiter-Glo cell proliferation assay, LN229; type: cell-based; conditions: Homo sapiens, LN-229, Glioma, mutation status PI3K
Description: as §1, §2, §3, §4, §5, §6
6. […]
as §7, §8, §9, §10

AU565 = assay: CellTiter-Glo cell proliferation assay, AU565; type: cell-based; conditions: Homo sapiens, Breast, mutation status WT
Description: as §1, §2, §3, §4, §5, §6, §11, §7, §8, §12, §10

MDA-MB-361.1 = assay: CellTiter-Glo cell proliferation assay, MDA-MB-361.1; type: cell-based; conditions: Breast, mutation status PI3K
Description: as §1, §2, §3, §4, §5, §6, §11, §7, §8, §12, §10

TOV21GX1 = assay: CellTiter-Glo cell proliferation assay, TOV21GX1; type: cell-based; conditions: Ovarian, mutation status PI3K/PTEN
Description: as §1, §2, §3, §4, §5, §6
6. […]
as §7, §8, §9, §10

U87MG = assay: CellTiter-Glo cell proliferation assay, U87MG; type: cell-based; conditions: Homo sapiens, U-87 MG, Glioma, mutation status PTEN
Description: as §1, §2, §3, §4, §5, §6
6. […]
as §7, §8, §9, §10

KPL4 = assay: CellTiter-Glo cell proliferation assay, KPL4; type: cell-based; conditions: Breast, mutation status PI3K
Description: as §1, §2, §3, §4, §5, §6, §11, §7, §8, §12, §10

HCT116 = assay: CellTiter-Glo cell proliferation assay, HCT116; type: cell-based; conditions: Homo sapiens, HCT-116, Colon, mutation status PI3K/KRAS
Description: as §1, §2, §3, §4, §5, §6
6. […]
as §7, §8, §9, §10

H2122 = assay: CellTiter-Glo cell proliferation assay, H2122; type: cell-based; conditions: Homo sapiens, NCI-H2122, Lung(NSCLC), mutation status K-RAS
Description: as §1, §2, §3, §4, §5, §6, §11, §7, §8, §12, §10

IGROV1 = assay: CellTiter-Glo cell proliferation assay, IGROV1; type: cell-based; conditions: Homo sapiens, IGROV-1, Ovarian, mutation status PI3K
Description: as §1, §2, §3, §4, §5, §6
6. […]
as §7, §8, §9, §10

PC3 = assay: CellTiter-Glo cell proliferation assay, PC3; type: cell-based; conditions: Homo sapiens, PC-3, Prostate, mutation status PTEN
Description: as §1, §2, §3, §4, §5, §6, §11, §7, §8, §12, §10

RKO = assay: CellTiter-Glo cell proliferation assay, RKO; type: cell-based; conditions: Homo sapiens, Colon, mutation status PI3K
Description: as §1, §2, §3, §4, §5, §6
6. […]
as §7, §8, §9, §10

HCC1954 = assay: CellTiter-Glo cell proliferation assay, HCC1954; type: cell-based; conditions: Homo sapiens, Breast, mutation status PI3K
Description: as §1, §2, §3, §4, §5, §6, §11, §7, §8, §12, §10

EVSA-T = assay: CellTiter-Glo cell proliferation assay, EVSA-T; type: cell-based; conditions: Homo sapiens, Breast, mutation status PTEN
Description: as §1, §2, §3, §4, §5, §6, §11, §7, §8, §12, §10

MCF7 = assay: CellTiter-Glo cell proliferation assay, MCF7; type: cell-based; conditions: Homo sapiens, Breast, mutation status PI3K
Description: as §1, §2, §3, §4, §5, §6
6. […]
as §7, §8, §9, §10

CAL51 = assay: CellTiter-Glo cell proliferation assay, CAL51; type: cell-based; conditions: Homo sapiens, CAL-51, Breast, mutation status PI3K/PTEN
Description: as §1, §2, §3, §4, §5, §6
6. […]
as §7, §8, §9, §10

SKBR3 = assay: CellTiter-Glo cell proliferation assay, SKBR3; type: cell-based; conditions: Homo sapiens, SK-BR-3, Breast, mutation status WT
Description: as §1, §2, §3, §4, §5, §6
6. […]
as §7, §8, §9, §10

EFM19-2A = assay: CellTiter-Glo cell proliferation assay, EFM19-2A; type: cell-based; conditions: EFM-192A, Breast, mutation status WT
Description: as §1, §2, §3, §4, §5, §6
6. […]
as §7, §8, §9, §10

A375 = assay: CellTiter-Glo cell proliferation assay, A375; type: cell-based; conditions: Homo sapiens, A-375, Melanoma, mutation status B-Raf
Description: as §1, §2, §3, §4, §5, §6
6. […]
as §7, §8, §9, §10

CAL120 = assay: CellTiter-Glo cell proliferation assay, CAL120; type: cell-based; conditions: Homo sapiens, CAL-120, Breast, mutation status WT
Description: as §1, §2, §3, §4, §5, §6
6. […]
as §7, §8, §9, §10

537MEL = assay: CellTiter-Glo cell proliferation assay, 537MEL; type: cell-based; conditions: Homo sapiens, Melanoma, mutation status PTEN
Description: as §1, §2, §3, §4, §5, §6
6. […]
as §7, §8, §9, §10

H1703 = assay: CellTiter-Glo cell proliferation assay, H1703; type: cell-based; conditions: Homo sapiens, NCI-H1703, Lung(NSCLC), mutation status WT
Description: as §1, §2, §3, §4, §5, §6
6. […]
as §7, §8, §9, §10

MFM223 = assay: CellTiter-Glo cell proliferation assay, MFM223; type: cell-based; conditions: Homo sapiens, MFM-223, Breast, mutation status PI3K
Description: as §1, §2, §3, §4, §5, §6, §11, §7, §8, §12, §10

PI3K alpha (p110 alpha) = molecular target: T1, PI3K alpha (p110 alpha) (Homo sapiens, UniProt P42336); assay: PI3K p110α (alpha) binding assay (Example 901); conditions: read-out: IC50, inhibition of PI3K alpha (binding to p110 alpha)
T1 construct: purchased Upstate Cell Signaling Solutions, Charlottesville, Va
T1 sequence (P42336 whole entry): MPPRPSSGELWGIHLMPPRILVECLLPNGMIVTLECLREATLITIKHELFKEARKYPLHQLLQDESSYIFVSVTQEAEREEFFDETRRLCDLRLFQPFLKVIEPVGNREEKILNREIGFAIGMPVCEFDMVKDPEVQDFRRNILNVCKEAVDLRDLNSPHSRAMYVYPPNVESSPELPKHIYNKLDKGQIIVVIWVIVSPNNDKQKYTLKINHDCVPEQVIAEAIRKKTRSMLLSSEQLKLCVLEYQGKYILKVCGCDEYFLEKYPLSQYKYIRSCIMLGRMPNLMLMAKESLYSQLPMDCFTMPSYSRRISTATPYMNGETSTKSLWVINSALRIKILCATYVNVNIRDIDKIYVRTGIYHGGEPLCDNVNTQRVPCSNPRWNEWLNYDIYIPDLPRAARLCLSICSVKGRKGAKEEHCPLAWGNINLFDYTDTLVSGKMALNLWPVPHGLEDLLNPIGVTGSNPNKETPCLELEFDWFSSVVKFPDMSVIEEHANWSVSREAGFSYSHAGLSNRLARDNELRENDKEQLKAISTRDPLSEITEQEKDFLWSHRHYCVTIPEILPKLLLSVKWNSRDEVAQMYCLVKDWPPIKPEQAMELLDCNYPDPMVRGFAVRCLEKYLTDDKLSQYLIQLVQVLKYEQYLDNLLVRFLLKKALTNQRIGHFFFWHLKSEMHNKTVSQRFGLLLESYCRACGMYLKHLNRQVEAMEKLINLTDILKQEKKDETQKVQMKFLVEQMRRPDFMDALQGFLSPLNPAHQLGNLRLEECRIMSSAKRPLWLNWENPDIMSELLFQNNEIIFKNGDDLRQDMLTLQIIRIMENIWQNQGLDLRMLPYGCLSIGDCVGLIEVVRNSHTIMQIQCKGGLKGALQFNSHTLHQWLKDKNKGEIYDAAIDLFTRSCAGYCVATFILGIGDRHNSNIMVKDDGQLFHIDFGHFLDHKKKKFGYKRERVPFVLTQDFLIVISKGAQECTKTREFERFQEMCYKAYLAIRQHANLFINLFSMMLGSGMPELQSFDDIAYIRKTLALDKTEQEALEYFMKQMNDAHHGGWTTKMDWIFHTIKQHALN
T1 sequence (P27986 whole entry partner): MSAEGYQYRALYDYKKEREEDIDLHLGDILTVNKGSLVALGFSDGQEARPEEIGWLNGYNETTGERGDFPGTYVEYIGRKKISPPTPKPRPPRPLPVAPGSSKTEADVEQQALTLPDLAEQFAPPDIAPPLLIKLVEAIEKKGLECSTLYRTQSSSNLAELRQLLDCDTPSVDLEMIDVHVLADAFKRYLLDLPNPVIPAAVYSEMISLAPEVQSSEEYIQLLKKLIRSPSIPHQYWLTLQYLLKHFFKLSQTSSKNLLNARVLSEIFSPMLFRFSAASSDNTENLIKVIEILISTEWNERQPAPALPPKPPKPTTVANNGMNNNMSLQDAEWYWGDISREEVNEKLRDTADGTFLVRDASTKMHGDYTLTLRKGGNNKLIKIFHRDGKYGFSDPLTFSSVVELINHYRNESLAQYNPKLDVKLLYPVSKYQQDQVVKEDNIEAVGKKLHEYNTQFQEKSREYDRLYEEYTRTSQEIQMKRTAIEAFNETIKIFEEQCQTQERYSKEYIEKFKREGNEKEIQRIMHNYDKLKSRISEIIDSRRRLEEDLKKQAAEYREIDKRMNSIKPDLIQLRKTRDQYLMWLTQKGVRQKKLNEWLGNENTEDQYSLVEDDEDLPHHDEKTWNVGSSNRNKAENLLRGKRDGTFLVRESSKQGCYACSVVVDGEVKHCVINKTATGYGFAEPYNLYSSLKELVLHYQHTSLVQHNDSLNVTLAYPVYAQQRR
Excerpt: Determination of the PI3 kinase activity of a Formula I compound is possible by a number of direct and indirect detection methods.

CC(C)n1ncnc1-c1cn2c(n1)-c1ccc(-c3cnn(CC(C)(C)O)c3)cc1OCC2 [compound 180, 1-(4-(2-(1-isopropyl-1H-1,2,4-triazol-5-yl)-5,6-dihydrobenzo[f]imidazo[1,2-d][1,4]oxazepin-9-yl)-1H-pyrazol-1-yl)-2-methylpropan-2-ol]
EC50 (A2058): ≥ 10000 nM | EC50 (Colo205): 259 nM | EC50 (T47D): 123 nM | EC50 (MDA-MB-231): ≥ 10000 nM | EC50 (LN229): 869 nM | EC50 (AU565): 230 nM | EC50 (MDA-MB-361.1): 214 nM | EC50 (TOV21GX1): 3590 nM | EC50 (U87MG): 787 nM | EC50 (KPL4): 39 nM | EC50 (HCT116): 1020 nM | EC50 (H2122): 515 nM | EC50 (IGROV1): 60 nM | EC50 (PC3): 769 nM | EC50 (RKO): 2500 nM | EC50 (HCC1954): 168 nM | EC50 (EVSA-T): 2040 nM | EC50 (MCF7): 121 nM | EC50 (CAL51): 672 nM | EC50 (SKBR3): 144 nM | EC50 (EFM19-2A): 146 nM | EC50 (A375): ≥ 10000 nM | EC50 (CAL120): 2120 nM | EC50 (537MEL): 2430 nM | EC50 (H1703): 225 nM | EC50 (MFM223): 439 nM | IC50 (PI3K alpha (p110 alpha)): 0.18 nM
